In patent US12454521B2, “Targeted protein degradation” (C4 Therapeutics, Inc., priority 2018, dated 2025) one finds Kd data, which are given here for ten compounds.

Molecules are shown by their SMILES. Counter-ions that a name gives are not always drawn.

CRBN-DDB1, sequence (Q96SW2 whole entry): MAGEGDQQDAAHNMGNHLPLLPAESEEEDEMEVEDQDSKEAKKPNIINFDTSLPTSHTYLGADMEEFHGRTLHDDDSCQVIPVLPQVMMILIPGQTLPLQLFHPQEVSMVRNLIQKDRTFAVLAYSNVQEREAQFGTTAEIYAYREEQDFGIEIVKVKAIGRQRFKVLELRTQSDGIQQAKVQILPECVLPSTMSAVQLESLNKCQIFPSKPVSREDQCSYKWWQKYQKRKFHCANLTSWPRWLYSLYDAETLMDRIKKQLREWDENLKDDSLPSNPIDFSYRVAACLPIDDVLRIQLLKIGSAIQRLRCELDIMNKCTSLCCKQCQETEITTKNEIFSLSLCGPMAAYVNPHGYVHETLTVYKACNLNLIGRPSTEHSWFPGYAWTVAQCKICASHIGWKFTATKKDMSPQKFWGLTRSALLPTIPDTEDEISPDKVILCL
CRBN-DDB1, sequence (Q16531 whole entry partner): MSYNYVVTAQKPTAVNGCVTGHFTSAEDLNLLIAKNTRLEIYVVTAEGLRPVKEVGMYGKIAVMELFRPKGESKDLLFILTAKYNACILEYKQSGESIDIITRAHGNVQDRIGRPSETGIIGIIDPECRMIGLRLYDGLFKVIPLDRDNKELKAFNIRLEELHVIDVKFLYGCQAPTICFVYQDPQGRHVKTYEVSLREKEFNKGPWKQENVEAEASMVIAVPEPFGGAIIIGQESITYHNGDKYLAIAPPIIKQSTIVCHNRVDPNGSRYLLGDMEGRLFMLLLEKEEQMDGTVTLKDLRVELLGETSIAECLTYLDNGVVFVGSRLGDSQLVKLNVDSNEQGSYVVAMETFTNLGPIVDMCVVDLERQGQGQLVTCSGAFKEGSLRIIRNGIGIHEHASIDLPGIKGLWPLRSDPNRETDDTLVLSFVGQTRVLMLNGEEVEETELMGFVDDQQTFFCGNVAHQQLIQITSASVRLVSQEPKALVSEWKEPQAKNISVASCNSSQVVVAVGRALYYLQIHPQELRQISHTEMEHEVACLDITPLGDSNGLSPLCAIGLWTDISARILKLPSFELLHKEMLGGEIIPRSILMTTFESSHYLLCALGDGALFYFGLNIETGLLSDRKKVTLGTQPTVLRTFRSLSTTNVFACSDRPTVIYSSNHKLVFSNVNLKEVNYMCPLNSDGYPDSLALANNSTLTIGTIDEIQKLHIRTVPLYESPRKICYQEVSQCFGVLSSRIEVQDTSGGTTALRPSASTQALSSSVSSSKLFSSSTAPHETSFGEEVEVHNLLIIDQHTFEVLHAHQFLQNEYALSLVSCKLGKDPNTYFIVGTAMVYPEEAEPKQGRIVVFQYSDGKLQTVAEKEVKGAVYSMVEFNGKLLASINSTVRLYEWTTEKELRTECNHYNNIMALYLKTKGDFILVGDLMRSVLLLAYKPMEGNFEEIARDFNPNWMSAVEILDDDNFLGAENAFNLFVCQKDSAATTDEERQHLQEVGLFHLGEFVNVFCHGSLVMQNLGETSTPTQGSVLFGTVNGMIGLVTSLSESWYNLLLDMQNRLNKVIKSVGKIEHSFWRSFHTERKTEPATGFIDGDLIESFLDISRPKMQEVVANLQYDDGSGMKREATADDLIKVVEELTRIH

This experiment addresses CRBN-DDB1 (Homo sapiens, UniProt Q96SW2). As to the kind of experiment: CRBN-DDB1 fluorescence polarization (FP) binding assay. To be noted: displacement of Thalidomide-Alexa Fluor or Pomalidomide-fluorescein probe; 400 nM CRBN-DDB1, 5 nM probe, 0.05% pluronic acid, 60 min room temperature; read-out: FP binding to CRBN_DDB1.3 0.05% PA. The protocol: The measurement of the ability of representative Degrons to bind to CRBN-DDB1 was carried out using an established sensitive and quantitative in vitro fluorescence polarization (FP) based binding assay. (See, I. J. Enyedy et al, J. Med. Chem., 44: […] [2001]). Degrons were dispensed from serially diluted DMSO stock into black 384-well compatible fluorescence polarization plates using an Echo acoustic dispenser. Binding to CRBN-DDB1 was measured by displacement of either a (-)-Thalidomide- Alexa Fluor® or Pomalidomide-fluorescein conjugated probe dye. A 20 μL mixture containing 400 nM CRBN-DDB1 and 5 nM probe dye in 50 mM Hepes, pH 7.4, 200mM NaCl, 1% DMSO and 0.05% pluronic acid-127 acid was added to wells containing Degron and incubated at room temperature for 60 min. Matching control wells excluding CRBN-DDB1 were used to correct for background fluorescence. Plates were read on an Envision plate reader with appropriate FP filter sets. The corrected S (perpendicular) and P (parallel) values were used to calculate fluorescence polarization (FP) with the following equation: FP =1000*(S-G*P)/(S+G*P). The fractional amount of bound probe (FB) to CRBN-DDB1 as a function of Degron concentration was fitted according to Wang; FEBS Letters 360, (1995), 111-114 to obtain fits for parameter offsets and binding constant (KA) of Degron.
`O=C1CCN(c2ccc(C3CCNCC3)c(=O)[nH]2)C(=O)N1` [Compound 5, 1-(6-Oxo-5-(piperidin-4-yl)-1,6-dihydropyridin-2-yl)dihydropyrimidine-2,4(1H,3H)-dione Hydrochloride]: the Kd was under 100 µM.

Take `O=C1CCN(c2cnn(C3CCNCC3)c2)C(=O)N1` [Compound 8, 1-[1-(4-piperidyl)pyrazol-4-yl]hexahydropyrimidine-2,4-dione]: the Kd was under 100 µM.

As to `O=C1CCN(c2ccc(C3CCNCC3)[nH]c2=O)C(=O)N1` [Compound 7, 1-(2-Oxo-6-(piperidin-4-yl)-1,2-dihydropyridin-3-yl)dihydropyrimidine-2,4(1H,3H)-dione], the Kd was under 30 µM.

On to `Cn1nc(N2CCC(=O)NC2=O)c2ccc(Br)cc21` [Compound 2, 1-(6-Bromo-1-methyl-1H-indazol-3-yl)dihydropyrimidine-2,4(1H,3H)-dione], for which the Kd was under 50 µM.

`O=C1CCN(Cc2ccc(C3CCNCC3)cc2)C(=O)N1` [Compound 14, 1-(4-(Piperidin-4-yl)benzyl)dihydropyrimidine-2,4(1H,311)-dione TFA]: the Kd is under 30 µM.

Regarding `O=C(O)CCc1ccc(N2CCC(N3CCC(=O)NC3=O)CC2)cc1` [Compound 6, 3-[4-[4-(2,4-dioxohexahydropyrimidin-1-yl)-1-piperidyl]phenyl]propanoic acid], the Kd was under 50 µM.

Consider `O=C1CCN(c2cccc(C3CCNCC3)c2)C(=O)N1` [Compound 12, 1-(3-Piperidin-4-yl-phenyl)-dihydro-pyrimidine-2,4-dione hydrochloride], for which the Kd was under 100 µM.

Consider `O=C1CCN(c2ccc(N3CCNCC3)nc2)C(=O)N1` [Compound 1, 1-(6-(Piperazin-1-yl)pyridin-3-yl)dihydropyrimidine-2,4(1H,3H)-dione Hydrochloride], for which the Kd is under 30 µM.

`O=C1CCN(c2ccc(C3CCNCC3)cc2)C(=O)N1` [Compound 11, 1-[4-(4-piperidyl)phenyl]hexahydropyrimidine-2,4-dione; hydrochloride]: the Kd was under 100 µM.

As for `O=C1CCN(c2ccc(N3CCNCC3)cc2)C(=O)N1` [Compound 10, 1-(4-Piperazin-1-yl-phenyl)-dihydro-pyrimidine-2,4-dione hydrochloride], the Kd was under 100 µM.
